From patent US12486302B2, “Somatostatin receptor antagonist compounds and methods of using the same” (CDRD VENTURES INC., priority 2016, dated 2025)
*1 amine or outer side, *2 acyl side, *3 side chain or, on linkers, in order; H or OH if unused. Where a SMILES comes first, the peptide text is derived from it. Bridges are numbered along the chain shown (N, C = ends). Side-chain parts run from the residue outwards. [ ]: non-standard residue; d: D form. The star is where a group is joined. X1 = O=C([C@@H](Cc1ccc(NS(=O)(=O)c2ccccc2)cc1)N[*:1])[*:2]; dPhe(4-CH2NHCONH2) = NC(=O)NCc1ccc(C[C@@H](N)C(=O)O)cc1; X3 = O=C([C@@H](Cc1ccc(NCCN2CCOCC2)cc1)N[*:1])[*:2]; X2 = CCCCCNc1ccc(C[C@@H](N[*:1])C(=O)[*:2])cc1; dPhe(4-NH2) = Nc1ccc(C[C@@H](N)C(=O)O)cc1; Phe(4-Cl) = N[C@@H](Cc1ccc(Cl)cc1)C(=O)O; Ethyl(2-morpholino) = C1CN(CC*)CCO1; dCit = NC(=O)NCCC[C@@H](N)C(=O)O; Cit = NC(=O)NCCC[C@H](N)C(=O)O; CO = O=C([*:1])[*:2]; NHPh = c1ccc(N*)cc1

Legend:
Assay type in all cases: cell-based
Details in all cases: agonist challenge at EC80
[1] = biological target: SSTR1 (Homo sapiens, UniProt P30872); experiment: PathHunter β-Arrestin assay, antagonist mode, SSTR1
Protocol: (§1) The PathHunter® β-Arrestin assay monitors the activation of a GPCR in a homogenous, non-imaging assay format using a technology developed by DiscoveRx called Enzyme Fragment Complementation (EFC) with β-galactosidase (β-Gal) as the functional reporter. […] EA is fused to β-Arrestin and […] is fused to the GPCR of interest. When the GPCR is activated and β-Arrestin is recruited to the receptor, ED and EA complementation occurs, restoring β-Gal activity which is measured using chemiluminescent PathHunter® Detection Reagents. For antagonist determination, cells were pre-incubated with the compounds followed by agonist challenge at the EC80 concentration. Data was normalized to the maximal and minimal response observed in the presence of EC80 ligand and vehicle. Compound activity was analyzed using CBIS data analysis suite ChemInnovation, CA). Percentage inhibition was calculated using the following formula: % Inhibition=100%×(1−(mean signal of test sample-mean signal of vehicle control)/(mean signal of EC80 control-mean signal of vehicle control)). Percentage inhibition was calculated at 10 concentrations in steps on a Log 3 scale ranging from […] to 5e-5 μM. The results were plotted for IC50 calculation.

[2] = biological target: somatostatin type 2 (SSTR2) receptors (Homo sapiens, UniProt P30874); experiment: PathHunter β-Arrestin assay, antagonist mode, SSTR2
How it was run: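 Cells co-expressing PK-tagged human receptor and EA-β-Arrestin were pre-incubated with compound, then challenged with agonist at EC80. β-Gal complementation read by chemiluminescence; % inhibition normalized to EC80 and vehicle controls at 10 concentrations (log 3 steps from 1 μM down to 5e-5 μM), fitted for IC50.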

[3] = biological target: SSTR3 (Homo sapiens, UniProt P32745); experiment: PathHunter β-Arrestin assay, antagonist mode, SSTR3
Protocol: as §1

[4] = biological target: SSTR4 (Homo sapiens, UniProt P31391); experiment: PathHunter β-Arrestin assay, antagonist mode, SSTR4
Protocol: as §1

[5] = biological target: SSTR5 (Homo sapiens, UniProt P35346); experiment: PathHunter β-Arrestin assay, antagonist mode, SSTR5
Protocol: as §1

SSTR4, sequence (P31391 whole entry): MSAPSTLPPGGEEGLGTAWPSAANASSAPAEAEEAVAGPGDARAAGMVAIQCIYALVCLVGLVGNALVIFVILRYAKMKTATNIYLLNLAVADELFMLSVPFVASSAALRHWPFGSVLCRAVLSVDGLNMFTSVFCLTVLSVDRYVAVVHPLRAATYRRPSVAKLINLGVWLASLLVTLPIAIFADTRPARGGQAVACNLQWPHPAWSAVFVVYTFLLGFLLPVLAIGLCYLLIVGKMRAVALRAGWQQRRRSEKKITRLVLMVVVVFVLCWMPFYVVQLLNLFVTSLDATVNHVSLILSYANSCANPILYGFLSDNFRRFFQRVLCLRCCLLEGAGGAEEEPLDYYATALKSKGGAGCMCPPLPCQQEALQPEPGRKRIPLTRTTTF
SSTR1, sequence (P30872 whole entry, the tested form may be a part): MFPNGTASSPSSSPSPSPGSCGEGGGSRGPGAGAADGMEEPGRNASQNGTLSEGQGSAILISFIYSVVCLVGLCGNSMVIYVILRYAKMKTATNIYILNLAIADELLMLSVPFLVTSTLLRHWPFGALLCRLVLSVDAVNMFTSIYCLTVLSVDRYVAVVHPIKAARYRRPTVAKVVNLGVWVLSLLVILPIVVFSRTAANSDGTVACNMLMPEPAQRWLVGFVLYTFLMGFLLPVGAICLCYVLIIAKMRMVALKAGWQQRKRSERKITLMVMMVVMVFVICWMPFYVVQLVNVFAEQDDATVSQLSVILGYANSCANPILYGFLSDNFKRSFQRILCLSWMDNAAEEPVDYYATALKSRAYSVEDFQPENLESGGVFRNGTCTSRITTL
somatostatin type 2 (SSTR2) receptors, sequence (P30874 whole entry): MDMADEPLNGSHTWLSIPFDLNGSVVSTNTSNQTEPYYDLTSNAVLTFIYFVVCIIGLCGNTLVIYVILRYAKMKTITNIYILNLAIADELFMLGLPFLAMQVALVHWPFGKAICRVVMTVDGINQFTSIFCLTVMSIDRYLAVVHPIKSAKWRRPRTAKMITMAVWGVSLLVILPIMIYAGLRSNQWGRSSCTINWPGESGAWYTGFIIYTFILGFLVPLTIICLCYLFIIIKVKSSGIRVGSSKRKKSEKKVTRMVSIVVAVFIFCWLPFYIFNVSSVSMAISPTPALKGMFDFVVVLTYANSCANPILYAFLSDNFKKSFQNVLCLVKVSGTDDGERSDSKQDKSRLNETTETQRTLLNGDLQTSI
SSTR5, sequence (P35346 whole entry): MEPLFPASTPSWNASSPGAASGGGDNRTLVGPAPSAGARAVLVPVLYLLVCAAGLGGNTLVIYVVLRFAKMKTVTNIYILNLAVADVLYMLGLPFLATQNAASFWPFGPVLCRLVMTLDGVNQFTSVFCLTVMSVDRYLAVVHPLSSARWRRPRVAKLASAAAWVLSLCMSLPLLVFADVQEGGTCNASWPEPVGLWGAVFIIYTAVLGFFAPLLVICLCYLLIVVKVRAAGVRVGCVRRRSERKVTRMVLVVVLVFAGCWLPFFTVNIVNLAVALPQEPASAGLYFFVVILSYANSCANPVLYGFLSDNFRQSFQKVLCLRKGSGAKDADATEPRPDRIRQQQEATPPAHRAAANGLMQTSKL
SSTR3, sequence (P32745 whole entry): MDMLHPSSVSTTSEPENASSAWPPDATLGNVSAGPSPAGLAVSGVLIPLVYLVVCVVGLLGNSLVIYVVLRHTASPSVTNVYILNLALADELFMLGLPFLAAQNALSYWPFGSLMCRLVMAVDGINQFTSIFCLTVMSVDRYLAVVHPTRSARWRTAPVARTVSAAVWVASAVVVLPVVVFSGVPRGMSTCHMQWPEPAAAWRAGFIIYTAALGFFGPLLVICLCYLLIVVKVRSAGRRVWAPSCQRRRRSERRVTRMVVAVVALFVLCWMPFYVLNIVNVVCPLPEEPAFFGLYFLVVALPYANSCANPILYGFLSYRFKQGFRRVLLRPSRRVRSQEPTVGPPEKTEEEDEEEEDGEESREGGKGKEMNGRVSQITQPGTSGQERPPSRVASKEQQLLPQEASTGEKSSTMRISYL

Structure (SMILES)	IC50 [1] [µM]	IC50 [2] [µM]	IC50 [3] [µM]	IC50 [4] [µM]	IC50 [5] [µM]
C[C@@H](O)[C@@H]1NC(=O)[C@H](CCCCN)NC(=O)[C@@H](CCCNC(N)=O)NC(=O)[C@H](Cc2ccc(O)cc2)NC(=O)[C@H](NC(=O)[C@@H](N)Cc2ccc(Cl)cc2)CSSC[C@@H](C(=O)N[C@H](Cc2ccc(O)cc2)C(N)=O)NC1=O [Compound 1, H-Cpa-cyclo[D-Cys-Tyr-D-Cit-Lys-Thr-Cys]-D-Tyr-NH2] (H-[Phe(4-Cl)][dC]Y[dCit]KTC[dY]-NH2; disulfide 2-7)	> 1	0.034	> 1	> 1	> 1
C[C@@H](O)[C@@H]1NC(=O)[C@H](CCCCN)NC(=O)[C@@H](Cc2ccc(CNC(N)=O)cc2)NC(=O)[C@H](Cc2ccc(O)cc2)NC(=O)[C@H](NC(=O)[C@@H](N)Cc2ccc(Cl)cc2)CSSC[C@@H](C(=O)N[C@H](Cc2ccc(O)cc2)C(N)=O)NC1=O [Compound 7, H-Cpa-cyclo[DCys- Tyr-D-(4- ureidomethyl) Phe-Lys- Thr-Cys]-DTyr-NH2] (H-[Phe(4-Cl)][dC]Y[dPhe(4-CH2NHCONH2)]KTC[dY]-NH2; disulfide 2-7)	> 1	0.031	> 1	> 1	> 1
C[C@@H](O)[C@@H]1NC(=O)[C@H](CCCCN)NC(=O)[C@@H](Cc2ccc(NCCN3CCOCC3)cc2)NC(=O)[C@H](Cc2ccc(O)cc2)NC(=O)[C@H](NC(=O)[C@@H](N)Cc2ccc(Cl)cc2)CSSC[C@@H](C(=O)N[C@H](Cc2ccc(O)cc2)C(N)=O)NC1=O [Compound 11, H-Cpa-cyclo [DCys-Tyr- D-4-(2-(4- morpholinyl) ethyl)Aph- Lys-Thr-Cys]- DTyr-NH2] (H-[Phe(4-Cl)][dC]Y[X3]KTC[dY]-NH2; disulfide 2-7)		0.243	> 1		
CCCCCNc1ccc(C[C@H]2NC(=O)[C@H](Cc3ccc(O)cc3)NC(=O)[C@H](NC(=O)[C@@H](N)Cc3ccc(Cl)cc3)CSSC[C@@H](C(=O)N[C@H](Cc3ccc(O)cc3)C(N)=O)NC(=O)[C@H]([C@@H](C)O)NC(=O)[C@H](CCCCN)NC2=O)cc1 [Compound 12, H-Cpa-cyclo[D-Cys-Tyr-D-Phe(4-n-pentylamino)-Lys-Thr-Cys]-D-Tyr-NH2] (H-[Phe(4-Cl)][dC]Y[X2]KTC[dY]-NH2; disulfide 2-7)	> 1	0.017	> 1	> 1	> 1
C[C@@H](O)[C@@H]1NC(=O)[C@H](CCCCN)NC(=O)[C@@H](Cc2ccc(OCCN3CCOCC3)cc2)NC(=O)[C@H](Cc2ccc(O)cc2)NC(=O)[C@H](NC(=O)[C@@H](N)Cc2ccc(Cl)cc2)CSSC[C@@H](C(=O)N[C@H](Cc2ccc(O)cc2)C(N)=O)NC1=O [Compound 13, H-Cpa-cyclo[DCys- Tyr-D-(2-(4- morpholinyl)ethyl) Tyr-Lys-Thr- Cys]-DTyr-NH2] (H-[Phe(4-Cl)][dC]Y[dY](Ethyl(2-morpholino))KTC[dY]-NH2; disulfide 2-7)		0.334	> 1		
C[C@@H](O)[C@@H]1NC(=O)[C@H](CCCCN)NC(=O)[C@@H](Cc2ccc(NS(=O)(=O)c3ccccc3)cc2)NC(=O)[C@H](Cc2ccc(O)cc2)NC(=O)[C@H](NC(=O)[C@@H](N)Cc2ccc(Cl)cc2)CSSC[C@@H](C(=O)N[C@H](Cc2ccc(O)cc2)C(N)=O)NC1=O [Compound 14, H-Cpa-cyclo[DCys- Tyr-D-4- (benzenesulfonyl) Aph-Lys-Thr- Cys]-DTyr-NH2] (H-[Phe(4-Cl)][dC]Y[X1]KTC[dY]-NH2; disulfide 2-7)	> 1	0.021	> 1	> 1	> 1
C[C@@H](O)[C@@H]1NC(=O)[C@H](CCCCN)NC(=O)[C@@H](Cc2ccc(NC(=O)Nc3ccccc3)cc2)NC(=O)[C@H](Cc2ccc(O)cc2)NC(=O)[C@H](NC(=O)[C@@H](N)Cc2ccc(Cl)cc2)CSSC[C@@H](C(=O)N[C@H](Cc2ccc(O)cc2)C(N)=O)NC1=O [Compound 15, H-Cpa-cyclo[D-Cys-Tyr-D-Phe(4-phenylureido)-Lys-Thr-Cys]-D-Tyr-NH2] (H-[Phe(4-Cl)][dC]Y[dPhe(4-NH2)]([CO-NHPh])KTC[dY]-NH2; disulfide 2-7)	> 1	0.001	> 1	> 1	> 1
C[C@@H](O)[C@@H]1NC(=O)[C@H](CCCCN)NC(=O)[C@@H](Cc2ccc(NC(=O)[C@@H](N)CO)cc2)NC(=O)[C@H](Cc2ccc(O)cc2)NC(=O)[C@H](NC(=O)[C@@H](N)Cc2ccc(Cl)cc2)CSSC[C@@H](C(=O)N[C@H](Cc2ccc(O)cc2)C(N)=O)NC1=O [Compound 16, H-Cpa-cyclo[DCys- Tyr-D-4-(Ser) Aph-Lys-Thr- Cys]-DTyr-NH2] (H-[Phe(4-Cl)][dC]Y[dPhe(4-NH2)](Ser)KTC[dY]-NH2; disulfide 2-7)		0.234	> 1		
C[C@@H](O)[C@@H]1NC(=O)[C@H](CCCCN)NC(=O)[C@@H](Cc2ccc(NC(=O)[C@@H](N)CCCCN)cc2)NC(=O)[C@H](Cc2ccc(O)cc2)NC(=O)[C@H](NC(=O)[C@@H](N)Cc2ccc(Cl)cc2)CSSC[C@@H](C(=O)N[C@H](Cc2ccc(O)cc2)C(N)=O)NC1=O [Compound 17, H-Cpa-cyclo[DCys- Tyr-D-4-(Lys) Aph-Lys-Thr- Cys]-DTyr-NH2] (H-[Phe(4-Cl)][dC]Y[dPhe(4-NH2)](Lys)KTC[dY]-NH2; disulfide 2-7)		> 1	> 1		
C[C@@H](O)[C@@H]1NC(=O)[C@H](CCCCN)NC(=O)[C@@H](Cc2ccc(NC(=O)[C@@H](N)CC(=O)O)cc2)NC(=O)[C@H](Cc2ccc(O)cc2)NC(=O)[C@H](NC(=O)[C@@H](N)Cc2ccc(Cl)cc2)CSSC[C@@H](C(=O)N[C@H](Cc2ccc(O)cc2)C(N)=O)NC1=O [Compound 18, H-Cpa-cyclo[DCys- Tyr-D-4-(Asp) Aph-Lys-Thr- Cys]-DTyr-NH2] (H-[Phe(4-Cl)][dC]Y[dPhe(4-NH2)](Asp)KTC[dY]-NH2; disulfide 2-7)		> 1	> 1		
C[C@@H](O)[C@@H]1NC(=O)[C@H](CCCCN)NC(=O)[C@@H](Cc2ccc(NC(=O)[C@@H](N)CC(N)=O)cc2)NC(=O)[C@H](Cc2ccc(O)cc2)NC(=O)[C@H](NC(=O)[C@@H](N)Cc2ccc(Cl)cc2)CSSC[C@@H](C(=O)N[C@H](Cc2ccc(O)cc2)C(N)=O)NC1=O [Compound 19, H-Cpa-cyclo[DCys- Tyr-D-4-(Asn) Aph-Lys-Thr- Cys]-DTyr-NH2] (H-[Phe(4-Cl)][dC]Y[dPhe(4-NH2)](Asn)KTC[dY]-NH2; disulfide 2-7)		> 1	> 1		
C[C@@H](O)[C@@H]1NC(=O)[C@H](CCCCN)NC(=O)[C@@H](Cc2ccc(NC(=O)[C@@H](N)CCC(=O)O)cc2)NC(=O)[C@H](Cc2ccc(O)cc2)NC(=O)[C@H](NC(=O)[C@@H](N)Cc2ccc(Cl)cc2)CSSC[C@@H](C(=O)N[C@H](Cc2ccc(O)cc2)C(N)=O)NC1=O [Compound 20, H-Cpa-cyclo[DCys- Tyr-D-4-(Glu)Aph- Lys-Thr-Cys]- DTyr-NH2] (H-[Phe(4-Cl)][dC]Y[dPhe(4-NH2)](Glu)KTC[dY]-NH2; disulfide 2-7)		0.924	> 1		
C[C@@H](O)[C@@H]1NC(=O)[C@H](CCCCN)NC(=O)[C@@H](Cc2ccc(NC(=O)[C@@H](N)CCC(N)=O)cc2)NC(=O)[C@H](Cc2ccc(O)cc2)NC(=O)[C@H](NC(=O)[C@@H](N)Cc2ccc(Cl)cc2)CSSC[C@@H](C(=O)N[C@H](Cc2ccc(O)cc2)C(N)=O)NC1=O [Compound 21, H-Cpa-cyclo[DCys- Tyr-D-4-(Gln)Aph- Lys-Thr-Cys]- DTyr-NH2] (H-[Phe(4-Cl)][dC]Y[dPhe(4-NH2)](Gln)KTC[dY]-NH2; disulfide 2-7)		> 1	> 1		
C[C@@H](O)[C@@H]1NC(=O)[C@H](CCCCN)NC(=O)[C@@H](Cc2ccc(NC(=O)[C@@H](N)CCCNC(N)=O)cc2)NC(=O)[C@H](Cc2ccc(O)cc2)NC(=O)[C@H](NC(=O)[C@@H](N)Cc2ccc(Cl)cc2)CSSC[C@@H](C(=O)N[C@H](Cc2ccc(O)cc2)C(N)=O)NC1=O [Compound 22, H-Cpa-cyclo[DCys- Tyr-D-4-(Cit)Aph- Lys-Thr-Cys]- DTyr-NH2] (H-[Phe(4-Cl)][dC]Y[dPhe(4-NH2)](Cit)KTC[dY]-NH2; disulfide 2-7)		0.417	> 1		
CC(C)[C@H](N)C(=O)Nc1ccc(C[C@H]2NC(=O)[C@H](Cc3ccc(O)cc3)NC(=O)[C@H](NC(=O)[C@@H](N)Cc3ccc(Cl)cc3)CSSC[C@@H](C(=O)N[C@H](Cc3ccc(O)cc3)C(N)=O)NC(=O)[C@H]([C@@H](C)O)NC(=O)[C@H](CCCCN)NC2=O)cc1 [Compound 23, H-Cpa-cyclo[DCys- Tyr-D-4-(Val)Aph- Lys-Thr-Cys]- DTyr-NH2] (H-[Phe(4-Cl)][dC]Y[dPhe(4-NH2)](Val)KTC[dY]-NH2; disulfide 2-7)		0.458	> 1		
